# Assay results published in patent US11987600B2, “Contraceptive use of triterpenoids” (The Regents of the University of California, priority 2017, dated 2024).
# Columns and labels:
# human sperm [1] = experiment: Sperm hyperactivation: curvilinear velocity (VCL) of human sperm; format: cell-based; conditions: for change (increase) of VCL / reduction of VCL values in comparison to VCL in the presence of P4: capacitated spermatozoa; for change (increase) of VCL: compound alone; for decrease of VCL compared to sperm treated with PregS alone: capacitated sperm; for reduction of VCL values in comparison to VCL in the presence of P4: stimulated with P4 + compound
# Description: (§1) Pristimerin and lupeol decrease sperm hyperactivation in the presence of P4. Hyperactivated sperm motility is characterized by a highly asymmetrical bending of the sperm tail due to a CatSper-mediated rise in flagellar calcium concentration (15). Curvilinear velocity (VCL) is the average velocity of the sperm head through the sperm trajectory, which increases during capacitation. A CatSper-mediated calcium rise promotes hyperactivation and makes the sperm trajectory less linear, which results in an increase of VCL. Capacitation increases CatSper activity, which results in a higher percentage of sperm with hyperactivated motility. Thus, capacitated spermatozoa tend to have higher VCL values than non-capacitated. Since both P4 and PregS activate CatSper, while pristimerin and lupeol inhibit it, we explored whether VCL values of human sperm are affected in the presence of plant triterpenoids or steroid hormones. As expected, neither of the compounds changed VCL values of non-capacitated sperm cells. […] Stimulating capacitated sperm with PregS in combination with pristimerin or lupeol decreased VCL by 18% and 9%, respectively, compared to sperm, which were treated with PregS alone. […] Since CatSper is not only required for hyperactivation but also for basal motility, we sought to determine whether pristimerin and lupeol also affect sperm motility.
# human sperm [2] = experiment: Sperm motility: number/percentage of motile spermatozoa; format: cell-based; conditions: for decrease of percentage of motile sperm: capacitated sperm
# Description: as §1
# CatSper [3] = experiment: Electrophysiology recordings of inward monovalent currents through CatSper (ICatSper) of human sperm; format: cell-based; conditions: for reduction of ICatSper stimulation compared to stimulation with P4 alone: co-application with P4, human spermatozoa; for reduction of ICatSper stimulation compared to stimulation with PregS alone: co-application with PregS
# Description: 2-AG hydrolysis by monoacyl lipases, such as ABHD2, is required for CatSper activation. The plant triterpenoid pristimerin was reported to inhibit the activity of related monoacylglycerol lipase (MAGL) (9). […] To test this hypothesis, human spermatozoa were stimulated with pristimerin, followed by exposure to either a mixture of pristimerin and P4, or to a mixture of pristimerin and PregS. In these experiments we analyzed inward monovalent currents through CatSper (ICatSper) of human sperm. Electrophysiology recordings were performed as described in (14). […] Compared to stimulation with P4 or PregS alone, the ICatSper stimulation was reduced by 63% (pristimerin and P4) and by 48% (pristimerin and PregS) (7).
# Another pharmacologically active plant triterpenoid, which affects sperm functions when orally administered to rats, is lupeol (8). Lupeol is similar in structure to steroid hormones. […] However, administration of lupeol with P4 or PregS led to an even stronger inhibition of ICatSper than pristimerin. Compared to CatSper stimulation elicited by P4 or PregS alone, CatSper currents were reduced by 71% and 68%, respectively, in combination with P4 or PregS (7).
# CatSper [4] = experiment: Activity of steroids and modified steroids on CatSper activation (method not described); format: cell-based, human; conditions: for activity relative to progesterone: effect of position 11 versus position 3 modification; for effect on CatSper activation: competing with progesterone
# rats = conditions: orally administered to rats; cited from earlier work
# [5] = PregS in combination with compound
molecule,measurement,setting,value
"pregnenolone sulfate [PregS, reference compound]",change (increase) of VCL,human sperm [1],remained unchanged
COC(=O)[C@]1(C)CC[C@]2(C)CC[C@]3(C)C4=CC=C5C(=CC(=O)C(O)=C5C)[C@]4(C)CC[C@@]3(C)[C@@H]2C1 [pristimerin],decrease of percentage of motile sperm,human sperm [2]; P4 co-applied with compound,19%
same,reduction of ICatSper stimulation compared to stimulation with P4 alone,CatSper [3],63%
same,reduction of ICatSper stimulation compared to stimulation with PregS alone,CatSper [3]; human spermatozoa,48%
same,decrease of VCL compared to sperm treated with PregS alone,human sperm [1]; [5],18%
same,reduction of VCL values in comparison to VCL in the presence of P4,human sperm [1],39%
progesterone-11-biotin,activity relative to progesterone,CatSper [4],inactive
progesterone-11-BSA,activity relative to progesterone,CatSper [4],inactive
C[C@]12CC[C@H]3[C@@H](CCC4=CC(=O)CC[C@@]43C)[C@@H]1CC[C@@H]2O [testosterone],effect on CatSper activation,CatSper [4],impair CatSper activation
estrogen,effect on CatSper activation,CatSper [4],impair CatSper activation
C=C(C)[C@@H]1CC[C@]2(C)CC[C@]3(C)[C@H](CC[C@@H]4[C@@]5(C)CC[C@H](O)C(C)(C)[C@@H]5CC[C@]43C)[C@@H]12 [lupeol],change in number of motile spermatozoa,"human sperm [2]; capacitated and non-capacitated, compound alone",remained unchanged
same,reduction of motile sperm,"human sperm [2]; capacitated or non-capacitated sperm, co-stimulation with PregS",did not result in a significant reduction
same,decrease of percentage of motile sperm,human sperm [2]; P4 co-applied with compound,19%
same,change of percentage of motile sperm,"human sperm [2]; non-capacitated cells, P4 co-applied with compound",did not change
same,reduction of ICatSper stimulation compared to stimulation with P4 alone,CatSper [3],71%
same,reduction of ICatSper stimulation compared to stimulation with PregS alone,CatSper [3]; human spermatozoa,68%
same,effect on basal ICatSper,"CatSper [3]; compound alone, human spermatozoa",did not affect basal ICatSper
same,decrease of VCL compared to sperm treated with PregS alone,human sperm [1]; [5],9%
same,change (increase) of VCL,human sperm [1],remained unchanged
same,reduction of VCL values in comparison to VCL in the presence of P4,human sperm [1],48%
same,change of VCL values,"human sperm [1]; non-capacitated sperm, PregS in combination with compound",remained unchanged
same,antifertility properties,rats,antifertility properties
"CC(=O)[C@H]1CC[C@H]2[C@@H]3CCC4=CC(=O)CC[C@]4(C)[C@H]3CC[C@]12C [P4, progesterone, reference compound]",change (increase) of VCL,human sperm [1],12%
"CC#C[C@]1(O)CC[C@H]2[C@@H]3CCC4=CC(=O)CCC4=C3[C@@H](c3ccc(N(C)C)cc3)C[C@@]21C [RU-486, mifepristione]",activity relative to progesterone,CatSper [4],inactive
C[C@]12CCC(=O)C=C1CC[C@@H]1[C@@H]2[C@@H](O)C[C@@]2(C)[C@H]1CC[C@]2(O)C(=O)CO [cortisol],effect on CatSper activation,CatSper [4],impair CatSper activation
progesterone-3-BSA,activity relative to progesterone,CatSper [4],as active as progesterone
progesterone-3-biotin,activity relative to progesterone,CatSper [4],as active as progesterone
